ChEMBL document CHEMBL2321853, “Novel acylethanolamide derivatives that modulate body weight through enhancement of hypothalamic pro-opiomelanocortin (POMC) and/or decreased neuropeptide Y (NPY)” (J Med Chem, 2013)
Calls of active or inactive are those of the source. No cut-off for these calls is given here.

Legend:
[1] = test system: Mus musculus; experiment: Antiobesity activity in Sabra mouse assessed as change in body weight at 1 mg/kg, ip administered on day 8, 9, 10, 11, 14, 18, 24 and 32 measured on day 35 relative to control; type: functional; settings: route intraperitoneal
[2] = test system: Mus musculus; experiment: Antiobesity activity in Sabra mouse assessed as change in body weight at 1 mg/kg, ip administered on day 8, 9, 10, 11, 14, 18, 24 and 32 measured on day 30 relative to control; type: functional; settings: route intraperitoneal
[3] = test system: Hypothalamus; experiment: Effect on 5HT1A gene expression in Sabra mouse hypothalamus assessed as change in mRNA level at 1 mg/kg, ip administered on day 8, 9, 10, 11, 14, 18, 24 and 32 by RT-PCR analysis relative to GAPDH; type: functional; settings: route intraperitoneal
[4] = test system: Mus musculus; experiment: Antiobesity activity in Sabra mouse assessed as change in body weight at 1 mg/kg, ip administered on day 8, 9, 10, 11, 14, 18, 24 and 32 measured on day 39 relative to control; type: functional; settings: route intraperitoneal
[5] = test system: Mus musculus; experiment: Antiobesity activity in Sabra mouse assessed as change in food consumption at 1 mg/kg, ip administered on day 8, 9, 10, 11, 14, 18, 24 and 32 measured after 2 weeks relative to control; type: functional; settings: route intraperitoneal
[6] = biological target: Cannabinoid receptor 1 (Homo sapiens) (UniProt P21554); experiment: Displacement of [3H]SR141716A from human CB1 receptor expressed in rat Chem-1 cell membrane at 10 uM relative to control; type: cell membranes
Cannabinoid receptor 1 (Homo sapiens), sequence (P21554 whole entry): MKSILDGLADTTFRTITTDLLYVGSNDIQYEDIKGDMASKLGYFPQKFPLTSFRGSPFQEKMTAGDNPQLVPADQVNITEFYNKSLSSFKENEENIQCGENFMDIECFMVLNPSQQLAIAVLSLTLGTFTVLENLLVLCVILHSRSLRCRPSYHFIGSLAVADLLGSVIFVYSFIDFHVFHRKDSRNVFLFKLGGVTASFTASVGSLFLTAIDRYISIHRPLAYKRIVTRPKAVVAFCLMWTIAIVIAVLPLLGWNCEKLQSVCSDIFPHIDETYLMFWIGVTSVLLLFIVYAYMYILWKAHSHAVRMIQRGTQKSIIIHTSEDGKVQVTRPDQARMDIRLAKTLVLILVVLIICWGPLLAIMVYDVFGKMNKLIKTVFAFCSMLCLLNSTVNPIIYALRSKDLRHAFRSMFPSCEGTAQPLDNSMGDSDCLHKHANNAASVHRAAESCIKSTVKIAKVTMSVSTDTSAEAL

[7] = test system: Mus musculus; experiment: Antiobesity activity in Sabra mouse assessed as change in food consumption at 1 mg/kg, ip administered on day 8, 9, 10, 11, 14, 18, 24 and 32 measured after 5 weeks relative to control; type: functional; settings: route intraperitoneal
[8] = test system: Mus musculus; experiment: Antiobesity activity in Sabra mouse assessed as change in food consumption at 1 mg/kg, ip administered on day 8, 9, 10, 11, 14, 18, 24 and 32 measured after 4 weeks relative to control; type: functional; settings: route intraperitoneal
[9] = test system: Hypothalamus; experiment: Effect on CAMKK2 gene expression in Sabra mouse hypothalamus assessed as change in mRNA level at 1 mg/kg, ip administered on day 8, 9, 10, 11, 14, 18, 24 and 32 by RT-PCR analysis relative to GAPDH; type: functional; settings: route intraperitoneal
[10] = test system: Mus musculus; experiment: Antiobesity activity in Sabra mouse assessed as change in body weight at 1 mg/kg, ip administered on day 8, 9, 10, 11, 14, 18, 24 and 32 measured on day 4 relative to control; type: functional; settings: route intraperitoneal
[11] = test system: Mus musculus; experiment: Antiobesity activity in Sabra mouse assessed as change in body weight at 1 mg/kg, ip administered on day 8, 9, 10, 11, 14, 18, 24 and 32 measured on day 21 relative to control; type: functional; settings: route intraperitoneal
[12] = biological target: Cannabinoid receptor 2 (Homo sapiens) (UniProt P34972); experiment: Displacement of [3H]WIN-55,212-2 from human recombinant CB2 receptor expressed in CHO-K1 cells at 10 uM relative to control; type: cell-based
Cannabinoid receptor 2 (Homo sapiens), sequence (P34972 whole entry): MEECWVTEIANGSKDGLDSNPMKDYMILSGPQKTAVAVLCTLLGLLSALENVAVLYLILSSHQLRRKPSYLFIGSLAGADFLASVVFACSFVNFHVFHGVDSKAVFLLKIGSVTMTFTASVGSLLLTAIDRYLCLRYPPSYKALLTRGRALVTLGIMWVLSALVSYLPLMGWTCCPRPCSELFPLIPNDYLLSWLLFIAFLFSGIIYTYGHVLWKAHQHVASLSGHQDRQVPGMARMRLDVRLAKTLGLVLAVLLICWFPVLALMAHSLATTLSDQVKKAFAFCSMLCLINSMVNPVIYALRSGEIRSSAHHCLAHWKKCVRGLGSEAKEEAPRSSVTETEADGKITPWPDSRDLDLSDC

[13] = test system: Mus musculus; experiment: Antiobesity activity in Sabra mouse assessed as change in food consumption at 1 mg/kg, ip administered on day 8, 9, 10, 11, 14, 18, 24 and 32 measured after 3 weeks relative to control; type: functional; settings: route intraperitoneal
[14] = test system: Hypothalamus; experiment: Effect on POMC gene expression in Sabra mouse hypothalamus assessed as change in mRNA level at 1 mg/kg, ip administered on day 8, 9, 10, 11, 14, 18, 24 and 32 by RT-PCR analysis relative to GAPDH; type: functional; settings: route intraperitoneal
[15] = biological target: Transient receptor potential cation channel subfamily V member 1 (Rattus norvegicus) (UniProt O35433); experiment: Displacement of [3H]resiniferatoxin from TRPV1 receptor in Wistar rat spinal cord at 10 uM relative to control
Transient receptor potential cation channel subfamily V member 1 (Rattus norvegicus), sequence (O35433 whole entry): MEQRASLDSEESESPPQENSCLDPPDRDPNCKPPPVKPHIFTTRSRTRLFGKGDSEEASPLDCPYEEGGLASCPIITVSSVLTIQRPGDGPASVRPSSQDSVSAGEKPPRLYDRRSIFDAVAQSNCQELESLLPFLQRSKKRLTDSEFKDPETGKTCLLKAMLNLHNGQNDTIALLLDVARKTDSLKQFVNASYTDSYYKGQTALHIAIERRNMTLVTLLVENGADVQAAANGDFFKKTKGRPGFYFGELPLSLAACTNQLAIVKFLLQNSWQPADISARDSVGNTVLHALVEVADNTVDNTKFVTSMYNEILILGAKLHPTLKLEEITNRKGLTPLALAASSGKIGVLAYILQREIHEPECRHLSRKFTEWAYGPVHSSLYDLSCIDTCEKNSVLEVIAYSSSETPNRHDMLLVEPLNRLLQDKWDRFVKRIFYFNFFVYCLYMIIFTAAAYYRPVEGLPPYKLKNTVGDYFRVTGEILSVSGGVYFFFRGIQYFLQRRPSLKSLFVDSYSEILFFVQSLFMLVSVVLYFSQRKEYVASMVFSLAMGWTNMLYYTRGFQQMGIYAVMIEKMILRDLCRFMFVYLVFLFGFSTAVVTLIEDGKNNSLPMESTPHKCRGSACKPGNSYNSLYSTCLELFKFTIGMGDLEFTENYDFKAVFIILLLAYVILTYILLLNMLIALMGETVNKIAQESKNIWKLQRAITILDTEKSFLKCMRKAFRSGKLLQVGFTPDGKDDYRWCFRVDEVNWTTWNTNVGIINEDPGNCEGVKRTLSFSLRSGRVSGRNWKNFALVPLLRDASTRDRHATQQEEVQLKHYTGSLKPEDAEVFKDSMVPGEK

[16] = test system: Mus musculus; experiment: Increase in motor activity Sabra mouse at 1 mg/kg, ip administered on day 8, 9, 10, 11, 14, 18, 24 and 32 measured on day 14 by open field test; type: functional, organism-based; set-up: dose 1 mg/kg
[17] = biological target: T1, Fatty-acid amide hydrolase 1 (Rattus norvegicus) (UniProt P97612); experiment: Inhibition of rat brain FAAH using [3H]anandamide as substrate at 10 uM preincubated for 15 mins before substrate addition relative to control
T1 sequence (whole entry): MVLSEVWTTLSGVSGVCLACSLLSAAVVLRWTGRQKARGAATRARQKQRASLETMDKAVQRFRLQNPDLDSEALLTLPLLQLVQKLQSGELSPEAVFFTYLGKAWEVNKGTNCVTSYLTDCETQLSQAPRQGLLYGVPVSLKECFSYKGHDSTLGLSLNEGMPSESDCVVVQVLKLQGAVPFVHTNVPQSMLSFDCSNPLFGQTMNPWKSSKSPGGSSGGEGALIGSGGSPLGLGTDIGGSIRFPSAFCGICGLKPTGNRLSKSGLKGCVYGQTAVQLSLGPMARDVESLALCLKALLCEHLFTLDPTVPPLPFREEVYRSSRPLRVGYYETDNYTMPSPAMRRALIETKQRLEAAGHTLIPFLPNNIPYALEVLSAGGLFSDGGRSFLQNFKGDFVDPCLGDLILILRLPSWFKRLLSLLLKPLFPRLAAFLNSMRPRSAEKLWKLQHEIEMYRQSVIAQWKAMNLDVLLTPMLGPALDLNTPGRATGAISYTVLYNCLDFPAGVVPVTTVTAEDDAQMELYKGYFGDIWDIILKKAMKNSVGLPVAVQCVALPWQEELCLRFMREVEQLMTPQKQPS

[18] = biological target: T2, Peroxisome proliferator-activated receptor alpha (Homo sapiens) (UniProt Q07869); experiment: Binding affinity to human recombinant PPARalpha expressed in Escherichia coli at 10 uM for 16 hrs by spectrofluorimetric analysis relative to control
T2 sequence (whole entry): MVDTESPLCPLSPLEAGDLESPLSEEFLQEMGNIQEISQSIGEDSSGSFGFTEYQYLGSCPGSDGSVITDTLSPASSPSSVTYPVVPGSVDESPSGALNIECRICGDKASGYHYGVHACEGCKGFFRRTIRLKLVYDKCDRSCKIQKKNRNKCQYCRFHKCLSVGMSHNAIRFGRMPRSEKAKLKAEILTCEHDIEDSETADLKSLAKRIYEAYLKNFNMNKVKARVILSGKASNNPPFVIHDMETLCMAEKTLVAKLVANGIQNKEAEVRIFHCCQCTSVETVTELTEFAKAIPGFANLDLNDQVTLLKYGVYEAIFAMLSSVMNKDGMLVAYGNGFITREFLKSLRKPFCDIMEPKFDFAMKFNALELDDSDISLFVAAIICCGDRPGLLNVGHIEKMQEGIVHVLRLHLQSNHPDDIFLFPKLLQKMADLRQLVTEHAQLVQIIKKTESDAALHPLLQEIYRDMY

[19] = test system: Hypothalamus; experiment: Effect on NPY gene expression in Sabra mouse hypothalamus assessed as change in mRNA level at 1 mg/kg, ip administered on day 8, 9, 10, 11, 14, 18, 24 and 32 by RT-PCR analysis relative to GAPDH; type: functional; settings: route intraperitoneal
[20] = test system: Mus musculus; experiment: Antiobesity activity in Sabra mouse assessed as change in body weight at 1 mg/kg, ip administered on day 8, 9, 10, 11, 14, 18, 24 and 32 measured on day 9 relative to control; type: functional; settings: route intraperitoneal
[21] = test system: Hypothalamus; experiment: Effect on FAAH gene expression in Sabra mouse hypothalamus assessed as change in mRNA level at 1 mg/kg, ip administered on day 8, 9, 10, 11, 14, 18, 24 and 32 by RT-PCR analysis relative to GAPDH; type: functional; settings: route intraperitoneal
[22] = test system: Mus musculus; experiment: Antiobesity activity in Sabra mouse assessed as change in body weight at 1 mg/kg, ip administered on day 8, 9, 10, 11, 14, 18, 24 and 32 measured on day 25 relative to control; type: functional; settings: route intraperitoneal
[23] = test system: Mus musculus; experiment: Antiobesity activity in Sabra mouse assessed as change in body weight at 1 mg/kg, ip administered on day 8, 9, 10, 11, 14, 18, 24 and 32 measured on day 14 relative to control; type: functional; settings: route intraperitoneal
[24] = test system: Mus musculus; experiment: Antiobesity activity in Sabra mouse assessed as change in food consumption at 1 mg/kg, ip administered on day 8, 9, 10, 11, 14, 18, 24 and 32 measured after 6 weeks relative to control; type: functional; settings: route intraperitoneal
[25] = test system: Hypothalamus; experiment: Effect on CART gene expression in Sabra mouse hypothalamus assessed as change in mRNA level at 1 mg/kg, ip administered on day 8, 9, 10, 11, 14, 18, 24 and 32 by RT-PCR analysis relative to GAPDH; type: functional; settings: route intraperitoneal

SMILES | Activity [1] [%] | Activity [2] [%] | Activity [3] [%] | Activity [4] [%] | Activity [5] [%] | inhibition [6] [%] | Activity [7] [%] | Activity [8] [%] | Activity [9] [%] | Activity [10] [%] | Activity [11] [%] | inhibition [12] [%] | Activity [13] [%] | Activity [14] [%] | Activity [18] [%] | Activity [19] [%] | Activity [20] [%] | Activity [21] [%] | Activity [22] [%] | Activity [23] [%] | also measured
CCCCCCCC/C=C\CCCCCCCC(=O)N[C@@H](CO)C(C)C | -6 | -4.7 | 17 | -6.7 | 79.4 | 36 | 80.6 | 81.8 | -2 | 0.4 | -1.7 | 5 | 78.1 | 31 | 0 | 8 | -0.8 | -28 | -3.3 | -3.1 | inhibition [15]: 3%; Activity [16]: Active; inhibition [17]: 8%; Activity [24]: 77.3%; Activity [25]: 44%
CCCCCCCC/C=C/CCCCCCCC(=O)N[C@@H](CO)C(C)C | 1.4 | 0.2 | -18 | -1 | 102.9 | 7 | 111.4 | 108 | 8 | -2.3 | -1 | 0 | 112 | 5 | 0 | -9 | -1.7 | -46 | -1.1 | -0.3 | Activity [16]: inactive; inhibition [17]: 13%; Activity [24]: 109.1%; Activity [25]: 25%
CCCCCCCCCCCCCCCC(=O)N[C@H](CO)C(C)C | -8.5 | -7.1 | -1 | -6.7 | 97 | 21 | 97.4 | 85.9 | 15 | 1.9 | 3 | 0 | 96.8 | 2 | 2 | -52 | -2.1 | 15 | -4.9 | -2.2 | Activity [16]: inactive; Activity [24]: 81.4%; Activity [25]: -13%
CCCCCCCCCCCCCCCCCC(=O)N[C@H](CO)C(C)C | -7.8 | -5.8 | -16 | -6 | 96 | 6 | 100.5 | 85.7 | -14 | 2.1 | -1.8 | 6 | 93.8 | 43 | 0 | -39 | 0.9 | -26 | -5.3 | -1.4 | inhibition [15]: -9%; Activity [16]: inactive; inhibition [17]: 0%; Activity [24]: 82.5%; Activity [25]: 2%
CCCCCCCC/C=C/CCCCCCCC(=O)N[C@H](CO)C(C)C | 1.6 | 0.2 | -9 | 0 | 98.5 | 8 | 109.2 | 104.9 | 62 | 3.1 | -0.1 | 5 | 108.1 | 10 | 0 | 69 | -0.1 | 15 | 0.7 | 1 | inhibition [15]: 6%; inhibition [17]: 7%; Activity [24]: 104.5%; Activity [25]: -11%
